Target: T1, HDAC6 enzyme (Homo sapiens, UniProt Q9UBN7)
T1 construct: transducing full length HDAC6 gene into Sf-9 insect cells; GST; purchased SignalChem; host or cells: Sf-9 insect cells
T1 sequence (Q9UBN7 1-1215): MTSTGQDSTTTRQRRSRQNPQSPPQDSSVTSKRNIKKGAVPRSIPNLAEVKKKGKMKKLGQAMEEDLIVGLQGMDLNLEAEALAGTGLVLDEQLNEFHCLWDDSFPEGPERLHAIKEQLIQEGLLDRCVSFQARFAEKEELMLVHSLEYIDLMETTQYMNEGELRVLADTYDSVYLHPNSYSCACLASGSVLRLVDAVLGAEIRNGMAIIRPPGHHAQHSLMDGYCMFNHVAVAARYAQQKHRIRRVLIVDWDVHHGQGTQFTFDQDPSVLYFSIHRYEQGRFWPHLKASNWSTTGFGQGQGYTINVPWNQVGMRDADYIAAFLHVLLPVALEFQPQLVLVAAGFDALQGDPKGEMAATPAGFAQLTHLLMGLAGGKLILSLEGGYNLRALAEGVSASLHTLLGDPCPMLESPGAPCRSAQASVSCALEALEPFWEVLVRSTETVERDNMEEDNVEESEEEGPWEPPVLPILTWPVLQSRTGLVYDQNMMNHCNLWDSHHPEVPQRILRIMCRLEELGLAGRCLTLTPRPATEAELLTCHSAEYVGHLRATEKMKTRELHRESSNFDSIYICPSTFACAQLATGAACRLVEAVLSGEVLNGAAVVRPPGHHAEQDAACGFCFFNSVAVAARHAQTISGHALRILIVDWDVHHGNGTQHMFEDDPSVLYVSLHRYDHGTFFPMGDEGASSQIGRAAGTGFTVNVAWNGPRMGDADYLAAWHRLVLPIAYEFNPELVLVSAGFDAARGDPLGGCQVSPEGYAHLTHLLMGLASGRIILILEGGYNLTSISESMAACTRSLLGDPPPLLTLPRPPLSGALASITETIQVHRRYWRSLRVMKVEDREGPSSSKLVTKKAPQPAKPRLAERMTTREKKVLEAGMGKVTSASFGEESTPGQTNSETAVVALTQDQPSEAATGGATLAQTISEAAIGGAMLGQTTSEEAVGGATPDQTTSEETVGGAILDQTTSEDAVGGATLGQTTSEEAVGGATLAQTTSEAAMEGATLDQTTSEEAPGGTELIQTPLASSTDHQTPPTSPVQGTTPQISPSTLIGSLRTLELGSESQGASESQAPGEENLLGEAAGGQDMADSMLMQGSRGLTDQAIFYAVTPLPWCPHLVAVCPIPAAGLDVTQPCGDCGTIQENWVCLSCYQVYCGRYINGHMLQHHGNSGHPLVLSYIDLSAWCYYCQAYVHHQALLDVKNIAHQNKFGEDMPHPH
Assay: HDAC6 enzyme inhibitory activity (HDAC-Glo I/II Assay kit)
Assay type: biochemical
Details: 10 μM; wells without enzyme = 100% inhibition; read-out: HDAC6 inhibitory rate (%) (10 μM)
Method in brief: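 Luminescence read-out after 20 min reaction with HDAC-Glo substrate-developer, following 60 min room-temperature preincubation of compound with Sf-9-expressed, GST-purified full-length enzyme. Inhibition is relative to no-enzyme wells set as 100%.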

First: O=C1c2cc(-c3nnc(C(F)F)o3)cc(F)c2CN1[C@@H]1COCC[C@H]1NCC(F)(F)F [Example 361, 6-(5-(difluoromethyl)-1,3,4-oxadiazol-2-yl)-4-fluoro-2-((3S,4R)-4-((2,2,2-trifluoro-ethyl)amino)tetrahydro-2H-pyran-3-yl)isoindolin-1-one]
Second: O=C1c2cc(-c3nnc(C(F)F)o3)cc(F)c2CN1[C@@H]1CCOC[C@@H]1NCC(F)(F)F [Example 374, 6-(5-(difluoromethyl)-1,3,4-oxadiazol-2-yl)-4-fluoro-2-((3R,4R)-3-((2,2,2-trifluoroethyl)amino)tetrahydro-2H-pyran-4-yl)isoindolin-1-one]
The inhibition at 10 µM of the first is higher: 101% for the first, 99% for the second.

Going from `O=C1c2cc(-c3nnc(C(F)F)o3)cnc2CN1Cc1ccccn1` [Example 362, 3-(5-(difluoromethyl)-1,3,4-oxadiazol-2-yl)-6-(pyridin-2-yl-methyl)-6,7-dihydro-5H-pyrrolo[3,4-b]pyridin-5-one] to `O=C1c2cc(-c3nnc(C(F)F)o3)cnc2CN1Cc1cccc(C(F)F)c1` [Example 370, 6-(3-(difluoromethyl)benzyl)-3-(5-(difluoro-methyl)-1,3,4-oxadiazol-2-yl)-6,7-dihydro-5H-pyrrolo[3,4-b]pyridin-5-one], the inhibition at 10 µM rises from 99% to 101%.

First: CC(C)(C)OC(=O)N[C@H]1COCC[C@H]1N1Cc2c(F)cc(-c3nnc(C(F)F)o3)cc2C1=O [Example 363, tert-butyl ((3R,4R)-4-(6-(5-(difluoromethyl)-1,3,4-oxadiazol-2-yl)-4-fluoro-1-oxo-1,3-dihydro-2H-isoindol-2-yl)tetrahydro-2H-pyran-3-yl)carbamate]
Second: CC(F)(F)C(=O)N[C@H]1COCC[C@H]1N1Cc2c(F)cc(-c3nnc(C(F)F)o3)cc2C1=O [Example 366, N-((3R,4R)-4-(6-(5-(difluoromethyl)-1,3,4-oxadiazol-2-yl)-4-fluoro-1-oxo-1,3-dihydro-2H-isoindol-2-yl)tetrahydro-2H-pyran-3-yl)-2,2-difluoropropanamide]
The inhibition at 10 µM of the first is higher: 99% for the first, 97% for the second.

Going from `N[C@H]1COCC[C@H]1N1Cc2c(F)cc(-c3nnc(C(F)F)o3)cc2C1=O` [Example 364, 2-((3R,4R)-3-amino-tetrahydro-2H-pyran-4-yl)-6-(5-(difluoromethyl)-1,3,4-oxadiazol-2-yl)-4-fluoroisoindolin-1-one] to `O=C1c2cc(-c3nnc(C(F)F)o3)cc(F)c2CN1[C@@H]1CCOC[C@@H]1NCC(F)(F)C(F)(F)F` [Example 375, 6-(5-(difluoromethyl)-1,3,4-oxadiazol-2-yl)-4-fluoro-2-((3R,4R)-3-((2,2,3,3,3-pentafluoropropyl)amino)tetrahydro-2H-pyran-4-yl)isoindolin-1-one], the inhibition at 10 µM rises from 87% to 101%.

`O=C1c2cc(-c3nnc(C(F)F)o3)cc(F)c2CN1[C@@H]1CCOC[C@@H]1NC(=O)C(F)(F)C(F)(F)F` [Example 365, N-((3R,4R)-4-(6-(5-(difluoromethyl)-1,3,4-oxadiazol-2-yl)-4-fluoro-1-oxo-1,3-dihydro-2H-isoindol-2-yl)tetrahydro-2H-pyran-3-yl)-2,2,3,3,3-pentafluoropropanamide] and `O=C1c2cc(-c3nnc(C(F)F)o3)cnc2CN1[C@@H]1CCCC[C@H]1NCC(F)(F)F` [Example 367, 3-(5-(difluoromethyl)-1,3,4-oxadiazol-2-yl)-6-((1R,2R)-2-((2,2,2-trifluoroethyl)amino)-cyclohexyl)-6,7-dihydro-5H-pyrrolo[3,4-b]pyridin-5-one] are the same in inhibition at 10 µM: 101% for the first, 101% for the second.

`Cn1cc(-c2cccc(C#N)c2)c(N2Cc3ccc(-c4nnc(C(F)F)o4)cc3C2=O)n1` [Example 368, 3-(3-(6-(5-(difluoromethyl)-1,3,4-oxadiazol-2-yl)-1-oxo-1,3-dihydro-2H-isoindol-2-yl)-1-methyl-1H-pyrazol-4-yl)benzonitrile] and `Cn1cc(-c2cccc(Cl)c2)c(N2Cc3ccc(-c4nnc(C(F)F)o4)cc3C2=O)n1` [Example 369, 2-(4-(3-chlorophenyl)-1-methyl-1H-pyrazol-3-yl)-6-(5-(difluoro-methyl)-1,3,4-oxadiazol-2-yl)isoindolin-1-one] are the same in inhibition at 10 µM: 99% for the first, 99% for the second.

`O=C1c2cc(-c3nnc(C(F)F)o3)cc(F)c2CN1C1(CNS(=O)(=O)CC(F)(F)F)CCCCC1` [Example 371, N-((1-(6-(5-(difluoro-methyl)-1,3,4-oxadiazol-2-yl)-4-fluoro-1-oxo-1,3-dihydro-2H-isoindol-2-yl)cyclohexyl)methyl)-2,2,2-trifluoroethane-sulfonamide] and `O=C1c2cc(-c3nnc(C(F)F)o3)cc(F)c2CN1C[C@@H]1CCCN1S(=O)(=O)CC(F)(F)F` [Example 380, 6-(5-(difluoro-methyl)-1,3,4-oxadiazol-2-yl)-4-fluoro-2-(((2S)-1-((2,2,2-trifluoroethyl)sulfonyl)pyrrolidin-2-yl)methyl) isoindolin-1-one] are the same in inhibition at 10 µM: 99% for the first, 99% for the second.

Compared with `O=C1c2cc(-c3nnc(C(F)F)o3)cc(F)c2CN1c1ccccc1Br` [Example 372, 2-(2-bromophenyl)-6-(5-(difluoromethyl)-1,3,4-oxadiazol-2-yl)-4-fluoroisoindolin-1-one], `N#Cc1cccc(-c2ccccc2N2Cc3c(F)cc(-c4nnc(C(F)F)o4)cc3C2=O)c1` [Example 376, 2′-(6-(5-(difluoro-methyl)-1,3,4-oxadiazol-2-yl)-4-fluoro-1-oxo-1,3-dihydro-2H-isoindol-2-yl)biphenyl-3-carbonitrile] is higher in inhibition at 10 µM: 92% for the first, 101% for the second.

First: O=C1c2cc(-c3nnc(C(F)F)o3)ccc2CN1c1cccc(F)c1Br [Example 373, 2-(2-bromo-3-fluorophenyl)-6-(5-(difluoromethyl)-1,3,4-oxadiazol-2-yl)isoindolin-1-one]
Second: N#Cc1cccc(-c2c(F)cccc2N2Cc3ccc(-c4nnc(C(F)F)o4)cc3C2=O)c1 [Example 377, 2′-(6-(5-(difluoro-methyl)-1,3,4-oxadiazol-2-yl)-1-oxo-1,3-dihydro-2H-isoindol-2-yl)-6′-fluorobiphenyl-3-carbonitrile]
The inhibition at 10 µM of the first is lower: 97% for the first, 101% for the second.

Compared with `N#Cc1cccc(-c2cc(F)ccc2N2Cc3c(F)cc(-c4nnc(C(F)F)o4)cc3C2=O)c1` [Example 378, 2′-(6-(5-(difluoro-methyl)-1,3,4-oxadiazol-2-yl)-4-fluoro-1-oxo-1,3-dihydro-2H-isoindol-2-yl)-5′-fluorobiphenyl-3-carbonitrile], `O=C1c2cc(-c3nnc(C(F)F)o3)cc(F)c2CN1c1ccc(F)cc1-c1cccc(F)c1` [Example 383, 2-(3′,5-difluoro-biphenyl-2-yl)-6-(5-(difluoro-methyl)-1,3,4-oxadiazol-2-yl)-4-fluoroiso-indolin-1-one] is lower in inhibition at 10 µM: 99% for the first, 95% for the second.

Going from `O=C1c2cc(-c3nnc(C(F)F)o3)cc(F)c2CN1C[C@@H]1CCCN1C(=O)C1CC1` [Example 379, 2-(((2S)-1-(cyclopropyl-carbonyl)pyrrolidin-2-yl)methyl)-6-(5-(difluoromethyl)-1,3,4-oxadiazol-2-yl)-4-fluoro-isoindolin-1-one] to `Cn1cc(-c2cc(F)ccc2N2Cc3c(F)cc(-c4nnc(C(F)F)o4)cc3C2=O)cn1` [Example 382, 6-(5-(difluoro-methyl)-1,3,4-oxadiazol-2-yl)-4-fluoro-2-(4-fluoro-2-(1-methyl-1H-pyrazol-4-yl)phenyl) isoindolin-1-one], the inhibition at 10 µM rises from 97% to 98%.

Going from `O=C1c2cc(-c3nnc(C(F)F)o3)cc(F)c2CN1c1ccc(F)cc1-c1cnn(C(F)F)c1` [Example 381, 6-(5-(difluoro-methyl)-1,3,4-oxadiazol-2-yl)-2-(2-(1-(difluoro-methyl)-1H-pyrazol-4-yl)-4-fluorophenyl)-4-fluoroisoindolin-1-one] to `Cn1cc(-c2cccc(F)c2)c(N2Cc3ccc(-c4nnc(C(F)F)o4)cc3C2=O)n1` [Example 384, 6-(5-(difluoro-methyl)-1,3,4-oxadiazol-2-yl)-2-(4-(3-fluoro-phenyl)-1-methyl-1H-pyrazol-3-yl) isoindolin-1-one], the inhibition at 10 µM falls from 100% to 99%.

— patent US10435399B2, “HDAC6 inhibitory heterocyclic compound” (TAKEDA PHARMACEUTICAL COMPANY LIMITED, priority 2017, dated 2019)
